Results as given in patent US11111242B2, “Pyrrolo[2,3-d]pyrimidinyl, pyrrolo[2,3-b]pyrazinyl and pyrrolo[2,3-d]pyridinyl acrylamides” (Pfizer Inc., priority 2013, dated 2021).
Read-outs that look alike come from different tables or passages of the source.

Tests used:
[1] = test system: IL-15 induced STAT5 phosphorylation in Human Whole Blood (total lymphocytes); assay: HWB IL-15 Induced STAT5 Phosphorylation Assay; type: cell-based; details: IL-15 stimulated, read-out: HWB-IL15-pSTAT5 IC50
[2] = test system: IL-15 induced P-STAT5 in human PBMC (total lymphocytes); assay: PBMC IL-15 Induced P-STAT5; type: cell-based; details: IL-15 stimulated, read-out: PBMC IL15-pSTAT5 IC50
In short: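 Thawed human PBMC in RPMI, preincubated 30 min at 37 °C, then IL-15 stimulated. Cells methanol-permeabilized (90%, on ice 20 min) and stained for phospho-STAT5. Read by flow cytometry, gated on total lymphocytes.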

[3] = Stability of JAK3 covalent inhibitors in human whole blood; type: in vitro ADME; details: 37° C.; for half-life at 1 μM: both sexes, read-out: Human blood stability t1/2; for Human blood stability t1/2: 1 μM
Procedure: Human blood was collected from one male and one female healthy subjects at the Occupational Health & Wellness Center at Pfizer, Groton, Conn. and pooled for each study. Both rat and human blood was collected freshly into K2-EDTA tubes and kept on ice. An aliquot of the blood was transferred to microtubes and pre-warmed for 10 min at 37° C. using a heat block. […] An aliquot of the incubation mixture was removed at designated time points during the course of the incubation, mixed with an aliquot of acetonitrile containing an internal standard, vortexed and centrifuged. The resulting supernatants were removed and subjected to LC-MS/MS analyses to determine parent compound concentrations. Peak area ratios of the parent compound vs the internal standard were used to determine the % of parent compound remaining vs incubation time.

[4] = target: JAK3 enzyme (Homo sapiens (Human), UniProt P52333); assay: JAK Caliper Enzyme Assay at 4 μM or 1 mM ATP; type: biochemical
Procedure: JAK Caliper Enzyme Assay at 4 μM or 1 mM ATP
Test article was solubilized in dimethyl sulfoxide (DMSO) to a stock concentration of 30 mM. An 11-point half log dilution series was created in DMSO with a top concentration of 600 μM. […] The compound plates were diluted 1 to 60 resulting in a top final assay compound concentration of 10 μM and a 2% DMSO concentration.
Test article and assay controls were added to a 384-well plate. Reaction mixtures contained 20 mM HEPES, pH 7.4, 10 mM magnesium chloride, 0.01% bovine serum albumin (BSA), 0.0005% Tween 20, 4 μM or 1 mM ATP and 1 μM peptide substrate. […] The assays were initiated by the addition 1 nM JAK3 enzyme and were incubated at room temperature 75 minutes for JAK3. Enzyme concentrations and incubation times were optimized for each new enzyme preps and were modified slightly over time to ensure 20%-30% phosphorylation. The assays were stopped with a final concentration of 10 mM EDTA, 0.1% Coating Reagent and 100 mM HEPES, pH=7.4. The assay plates were placed on a Caliper Life Science Lab Chip 3000 (LC3000) instrument, and each well was sampled using appropriate separation conditions to measure the unphosphorylated and phosphorylated peptide.

[5] = read-out: JAK3 (1 mM ATP) IC50, 1 mM ATP

JAK3 enzyme, sequence (P52333 whole entry, species assumed): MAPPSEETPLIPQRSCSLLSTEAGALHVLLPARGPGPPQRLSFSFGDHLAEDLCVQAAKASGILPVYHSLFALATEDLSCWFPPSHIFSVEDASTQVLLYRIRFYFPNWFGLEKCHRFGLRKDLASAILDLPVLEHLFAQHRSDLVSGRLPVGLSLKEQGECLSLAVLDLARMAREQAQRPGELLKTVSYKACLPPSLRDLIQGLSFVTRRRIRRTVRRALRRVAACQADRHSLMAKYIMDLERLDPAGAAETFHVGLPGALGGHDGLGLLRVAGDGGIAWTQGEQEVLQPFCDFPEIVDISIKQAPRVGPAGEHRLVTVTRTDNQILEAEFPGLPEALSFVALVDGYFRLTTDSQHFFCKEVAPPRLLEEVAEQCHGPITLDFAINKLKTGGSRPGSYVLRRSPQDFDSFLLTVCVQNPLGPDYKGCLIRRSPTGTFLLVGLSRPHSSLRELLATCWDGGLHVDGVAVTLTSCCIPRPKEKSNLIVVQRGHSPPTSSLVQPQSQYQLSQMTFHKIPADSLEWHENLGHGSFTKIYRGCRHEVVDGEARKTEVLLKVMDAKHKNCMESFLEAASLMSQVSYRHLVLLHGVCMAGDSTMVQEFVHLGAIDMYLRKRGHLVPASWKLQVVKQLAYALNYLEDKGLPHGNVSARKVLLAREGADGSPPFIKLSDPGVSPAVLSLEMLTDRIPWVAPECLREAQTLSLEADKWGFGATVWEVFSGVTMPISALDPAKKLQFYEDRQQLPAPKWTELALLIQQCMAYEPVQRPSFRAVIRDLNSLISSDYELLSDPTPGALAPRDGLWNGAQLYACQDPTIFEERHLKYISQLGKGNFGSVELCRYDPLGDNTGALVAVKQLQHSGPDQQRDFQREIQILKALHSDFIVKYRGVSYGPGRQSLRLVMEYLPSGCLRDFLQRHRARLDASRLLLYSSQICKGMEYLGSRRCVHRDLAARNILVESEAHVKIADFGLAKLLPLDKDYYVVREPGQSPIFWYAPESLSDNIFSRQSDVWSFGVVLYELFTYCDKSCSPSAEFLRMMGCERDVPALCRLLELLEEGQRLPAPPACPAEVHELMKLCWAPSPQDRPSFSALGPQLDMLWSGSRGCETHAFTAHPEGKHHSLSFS

Compound | IC50 ([1]; Lymphocyte) [nM] | IC50 [2] [nM] | other results
C=CC(=O)N1C[C@@H](Nc2ncnc3[nH]ccc23)[C@@H]2CC[C@H]1C2 (racemic) [Example 116, Rac-1-((1R,4R,5S)-4-(7H-pyrrolo[2,3-d]pyrimidin-4-ylamino)-2-azabicyclo[3.2.1]octan-2-yl)prop-2-en-1-one] | > 10000 | – | IC50 ([2]; Homo sapiens, PBMC): > 10000 nM; half-life at 1 μM [3]: 4.68 h
C=CC(=O)N1CC[C@H](Nc2cnc3[nH]cc(C(=O)NC(C)(C)C)c3n2)C[C@@H]1C (racemic) [Example 340] | – | – | half-life at 1 μM [3]: > 6 h
C=CC(=O)N1CC[C@@H](Nc2cnc3[nH]cc(C(=O)NC(C)(C)C)c3n2)C[C@H]1C (single isomer, unassigned) [Example 342] | – | – | half-life at 1 μM [3]: > 6 h
C=CC(=O)N1CCC[C@@H](Nc2ncnc3[nH]cc(-c4ccc(C(=O)NC5CC5)c(Cl)c4)c23)C1 [Example 31, 4-(4-{[(3R)-1-acryloylpiperidin-3-yl]amino}-7H-pyrrolo[2,3-d]pyrimidin-5-yl)-2-chloro-N-cyclopropylbenzamide] | – | – | half-life at 1 μM [3]: > 6 h
C=CC(=O)N1C[C@@H](O)C[C@@H](Nc2ncnc3[nH]cc(Cl)c23)C1 [Example 162, 1-{(3R,5S)-3-[(5-Chloro-7H-pyrrolo[2,3-d]pyrimidin-4-yl)amino]-5-hydroxypiperidin-1-yl}prop-2-en-1-one] | 1000 | 361 | half-life at 1 μM [3]: > 6 h
C=CC(=O)N1CC2CCN(c3cnc4[nH]cc(C(=O)NC(C)C)c4n3)C2C1 (stereo not drawn) [Example 178, 2-(5-acryloylhexahydropyrrolo[3,4-b]pyrrol-1(2H)-yl)-N-(propan-2-yl)-5H-pyrrolo[2,3-b]pyrazine-7-carboxamide] | – | 208 | IC50 [1]: 2560 nM; Human blood stability t1/2 [3]: 2.38 h
C=CC(=O)N1CCC(Oc2cnc3[nH]cc(-c4cnn(C)c4)c3n2)CC1 [Example 218, 1-(4-{[7-(1-methyl-1H-pyrazol-4-yl)-5H-pyrrolo[2,3-b]pyrazin-2-yl]oxy}piperidin-1-yl)prop-2-en-1-one] | – | 345 | IC50 [1]: 6190 nM; Human blood stability t1/2 [3]: >6 h
C=CC(=O)N1CCC(Nc2cnc3[nH]cc(C(=O)N[C@@H](C)C(=O)NCCC#N)c3n2)CC1 [Example 264, 2-[(1-acryloylpiperidin-4-yl)amino]-N-{(2S)-1-[(2-cyanoethyl)aminop]-oxopropan-2-yl}-5H-pyrrolo[2,3-b]pyrazine-7-carboxamide] | – | 4480 | IC50 ([4]; read-out: JAK3 (4 μM ATP) IC50, 4 μM ATP): 2.6 nM; IC50 [4, 5]: 226 nM
C=CC(=O)N1CCN(c2cnc3[nH]cc(C(=O)NC(C)C)c3n2)C[C@@H]1CC [Example 299, 2-[(3S)-4-acryloyl-3-ethylpiperazin-1-yl]-N-(propan-2-yl)-5H-pyrrolo[2,3-b]pyrazine-7-carboxamide] | 1380 | 225 | –
C=CC(=O)N1C[C@@H]2C[C@H]1CN2c1cnc2[nH]cc(C(=O)NC(C)C)c2n1 [Example 300, 2-[(1S,4S)-5-acryloyl-2,5-diazabicyclo[2.2.1]hept-2-yl]-N-(propan-2-yl)-5H-pyrrolo[2,3-b]pyrazine-7-carboxamide] | 3400 | 714 | –
C=CC(=O)N1[C@@H]2CC[C@H]1CN(c1cnc3[nH]cc(C(=O)NC(C)C)c3n1)C2 [Example 301, 2-[(1R,5S)-8-acryloyl-3,8-diazabicyclo[3.2.1]oct-3-yl]-N-(propan-2-yl)-5H-pyrrolo[2,3-b]pyrazine-7-carboxamide] | 4900 | 408 | –
C=CC(=O)N1CC[C@@H](Nc2cnc3[nH]cc(C(=O)NC(C)C)c3n2)[C@@H](OC)C1 [Example 302, 2-{[(3S,4R)-1-acryloyl-3-methoxypiperidin-4-yl]amino}-N-(propan-2-yl)-5H-pyrrolo[2,3-b]pyrazine-7-carboxamide] | 1310 | 264 | –
C=CC(=O)N1CCN(c2cnc3[nH]cc(C(=O)NC(C)C)c3n2)C[C@@H]1CC(C)C [Example 303, 2-[(3S)-4-acryloyl-3-(2-methylpropyl)piperazin-1-yl]-N-(propan-2-yl)-5H-pyrrolo[2,3-b]pyrazine-7-carboxamide] | 2730 | – | IC50 ([2]; Homo sapiens, PBMC): 294 nM
C=CC(=O)N1CC[C@@H](Nc2cnc3[nH]cc(C(=O)NC(C)C)c3n2)[C@H](OC)C1 [Example 305, 2-{[(3R,4R)-1-acryloyl-3-methoxypiperidin-4-yl]amino}-N-(propan-2-yl)-5H-pyrrolo[2,3-b]pyrazine-7-carboxamide] | 2640 | 744 | –
C=CC(=O)N1CCN(c2cnc3[nH]cc(C(=O)NC(C)C)c3n2)C[C@H]1CC [Example 311, 2-[(3R)-4-acryloyl-3-ethylpiperazin-1-yl]-N-(propan-2-yl)-5H-pyrrolo[2,3-b]pyrazine-7-carboxamide] | – | 696 | IC50 [4, 5]: 220 nM
C=CC(=O)N1CC[C@H](Nc2cnc3[nH]cc(C(=O)NC(C)C)c3n2)[C@H](OC)C1 [Example 317, 2-{[(3R,4S)-1-acryloyl-3-methoxypiperidin-4-yl]amino}-N-(propan-2-yl)-5H-pyrrolo[2,3-b]pyrazine-7-carboxamide] | 420 | 243 | –
C=CC(=O)N1CCC(C)(Nc2cnc3[nH]cc(C(=O)NC(C)C)c3n2)CC1 [Example 318, 2-[(1-acryloyl-4-methylpiperidin-4-yl)amino]-N-(propan-2-yl)-5H-pyrrolo[2,3-b]pyrazine-7-carboxamide] | 2080 | 260 | –
C=CC(=O)N1CC[C@@H](Nc2cnc3[nH]cc(C(=O)NC(C)C)c3n2)[C@@H](F)C1 [Example 320, 2-{[(3S,4R)-1-acryloyl-3-fluoropiperidin-4-yl]amino}-N-(propan-2-yl)-5H-pyrrolo[2,3-b]pyrazine-7-carboxamide] | 343 | 61.1 | –
C=CC(=O)N1CC(Nc2cnc3[nH]ccc3n2)C1 [Example 337, 1-(3-((5H-Pyrrolo[2,3-b]pyrazin-2-yl)amino)azetidin-1-yl)prop-2-en-1-one] | 631 | – | IC50 ([2]; Homo sapiens, PBMC): 237 nM
C=CC(=O)N1CCC(Oc2cnc3[nH]cc(C(=O)NC(C)C)c3n2)CC1 [Example 339, 2-((1-Acryloylpiperidin-4-yl)oxy)-N-isopropyl-5H-pyrrolo[2,3-b]pyrazine-7-carboxamide] | 502 | 80.6 | –
C=CC(=O)N1CC[C@H](Nc2cnc3[nH]cc(C(=O)NC(C)(C)C)c3n2)C[C@@H]1C [Example 341, 2-(((2S,4S)-1-Acryloyl-2-methylpiperidin-4-yl)amino)-N-(tert-butyl)-5H-pyrrolo[2,3-b]pyrazine-7-carboxamide] | – | – | Human blood stability t1/2 [3]: >6 h
C#CCNC(=O)c1c[nH]c2ncc(NC3CCN(C(=O)C=C)CC3)nc12 [Example 343, 2-((1-Acryloylpiperidin-4-yl)amino)-N-(prop-2-yn-1-yl)-5H-pyrrolo[2,3-b]pyrazine-7-carboxamide] | 105 | 36.8 | –
